The test system of assay [1] is profibrotic gene signatures in phLFs+TGFβ1. The assay can be described thus: Microarray transcriptomics and UMAP regulation pattern clustering in phLFs. The assay is classed as cell-based, human. The conditions noted are these: phLFs+TGFβ1+example 84. On the procedure:
Total RNA was isolated PEQGold Total RNA Kit (PeqLab) according to the manufacturer's instructions including gDNA elimination. The Agilent 2100 Bioanalyzer was used to assess RNA quality and RNA with RIN>7 was used for microarray analysis. Total RNA (150 ng) was amplified using the WT PLUS Reagent Kit (Thermo Fisher Scientific Inc., Waltham, USA). Amplified cDNA was hybridized on Human ClariomS arrays (Thermo Fisher Scientific). Staining and scanning (GeneChip Scanner 3000 7G) was done according to manufacturer's instructions. Transcriptome Analysis Console (TAC; version 4.0.0.25; Thermo Fisher Scientific) was used for quality control and to obtain annotated normalized SST-RMA gene-level data. Statistical analyses were performed by utilizing the statistical programming environment R (R Development Core Team Ref1). Genewise testing for differential expression was done employing the paired limma t-test and Benjamini-Hochberg multiple testing correction (FDR<10%). To reduce background, gene sets were filtered using DABG p-values<0.05 in at least one sample per pair and in at least two of three pairs per analysis. […] Then, clusters of genes were extracted. Gene/protein interactions were visualized using the String Database (www.stringdb.org).

Assay [2] has as its system ECM deposition of collagen I, collagen V and fibulin 1 by phLFs+TGFβ1. The assay can be described thus: 3D ECM deposition assay (collagen I, collagen V, fibulin 1), dose-response and live imaging. The class given is cell-based, human. The settings on record: phLFs+TGFβ1, during 48 hours. As to the method:
phLFs were cultured in DMEM F-12 medium with 20% fetal bovine serum (FBS) and antibiotic supplement as mentioned above. Cells were seeded with 6000 cells/well in 384-well CellCarrier plates (Perkin Elmer, Cat #6007550). Following overnight incubation, cells were starved in serum-reduced medium (1% FBS with 0.1 mM 2-phosphoascorbate (Sigma, Cat #49752)) for 24 h. Afterwards, cells were treated with TGFβ1 (1 ng/ml) or vehicle, and additionally small molecules or appropriate vehicle controls were added. […] Fluorescenceconjugation of the collagen type 1 antibody was done by using the AlexaFluor-555 Protein Labeling Kit (Invitrogen, Cat #A20174) according to manufacturer's instructions. […]
Following fixation, the automated imaging was achieved by using aconfocal laser scanning microscope (LSM710, Zeiss) with automated focus detection for three-dimensional image acquisition (1024 px×1024 px×9 px which equals a dimension of 1417 μm×1417 μm×16 μm). For post-acquisition analysis images were imported into IMARIS software (Bitplane) and volume detection or alternatively quantification of the mean fluorescence intensity, as well as Hoechst-stained cell nuclei were automatically counted by using Imaris' spot detection algorithm. […]

Results on 1 compound are retold here after patent US20240294465A1, “NOVEL ANTI-FIBROTIC DRUGS” (HELMHOLTZ ZENTRUM MUNCHEN - DEUTSCHES FORSCHUNGSZENTRUM FUR …, priority 2021, published 2024).

`CCCCOc1ccccc1NC(=O)/C=C/c1ccc(OC)c(OC)c1` [Example 84, (E)-N-(2-butoxyphenyl)-3-(3,4-dimethoxyphenyl)acrylamide]: the “gene-set enrichment analysis (collagen formation, extracellular matrix organization, smooth-muscle contraction)” value in assay [1] is “negative enrichment for profibrotic gene signatures”. For the same compound, the “dynamic deposition of collagen I and fibulin 1 (MFI, live imaging)” value in assay [2] is given as “inhibition of ECM deposition”.
